From the NIST ThermoML archive (doi:10.1021/je200721d)
± gives the expanded uncertainty stated by the source.

Assay: xn = mol fraction of the nth substance listed
Conditions: Liquid, Vibrating tube method

Compound CCCCCCCCCC [decane] + CCCCCC has a mass density (313.18 K, 22000 kPa, x2 = 0.7524) of 687.87 ± 0.45 kg/m3, a mass density (313.18 K, 23000 kPa, x2 = 0.0456) of 730.42 ± 0.41 kg/m3 and a mass density (313.18 K, 23000 kPa, x2 = 0.7524) of 688.65 ± 0.46 kg/m3. For the same compound, the mass density (313.18 K, 24000 kPa, x2 = 0.0456) was 731.08 ± 0.41 kg/m3, the mass density (313.18 K, 24000 kPa, x2 = 0.7524) was 689.4 ± 0.47 kg/m3 and the mass density (313.18 K, 25000 kPa, x2 = 0.0456) was 731.73 ± 0.42 kg/m3. The mass density (313.18 K, 25000 kPa, x2 = 0.7524) was 690.14 ± 0.47 kg/m3, the mass density (313.21 K, 1000 kPa, x2 = 0.4968) was 688.23 ± 0.26 kg/m3 and the mass density (313.21 K, 2000 kPa, x2 = 0.4968) was 689.24 ± 0.27 kg/m3. The mass density (313.21 K, 3000 kPa, x2 = 0.4968) was 690.26 ± 0.27 kg/m3, the mass density (313.21 K, 4000 kPa, x2 = 0.4968) was 691.19 ± 0.28 kg/m3 and the mass density (313.21 K, 5000 kPa, x2 = 0.4968) was 692.15 ± 0.29 kg/m3. It also gave a mass density (313.21 K, 6000 kPa, x2 = 0.4968) of 693.12 ± 0.3 kg/m3, a mass density (313.21 K, 7000 kPa, x2 = 0.4968) of 694.03 ± 0.3 kg/m3 and a mass density (313.21 K, 8000 kPa, x2 = 0.4968) of 694.95 ± 0.31 kg/m3. It also gave a mass density (313.21 K, 9000 kPa, x2 = 0.4968) of 695.84 ± 0.32 kg/m3, a mass density (313.21 K, 10000 kPa, x2 = 0.4968) of 696.74 ± 0.33 kg/m3 and a mass density (313.21 K, 10990 kPa, x2 = 0.4968) of 697.6 ± 0.33 kg/m3. The mass density (313.21 K, 12000 kPa, x2 = 0.4968) was 698.47 ± 0.34 kg/m3, the mass density (313.21 K, 13000 kPa, x2 = 0.4968) was 699.32 ± 0.35 kg/m3 and the mass density (313.21 K, 14000 kPa, x2 = 0.4968) was 700.16 ± 0.36 kg/m3. It also gave a mass density (313.21 K, 15000 kPa, x2 = 0.4968) of 700.95 ± 0.37 kg/m3, a mass density (313.21 K, 16000 kPa, x2 = 0.4968) of 701.76 ± 0.38 kg/m3 and a mass density (313.21 K, 17000 kPa, x2 = 0.4968) of 702.55 ± 0.38 kg/m3. It also gave a mass density (313.21 K, 18000 kPa, x2 = 0.4968) of 703.34 ± 0.39 kg/m3, a mass density (313.21 K, 19000 kPa, x2 = 0.4968) of 704.08 ± 0.4 kg/m3 and a mass density (313.21 K, 20000 kPa, x2 = 0.4968) of 704.83 ± 0.41 kg/m3. For the same compound, the mass density (313.21 K, 21000 kPa, x2 = 0.4968) was 705.58 ± 0.42 kg/m3, the mass density (313.21 K, 22000 kPa, x2 = 0.4968) was 706.34 ± 0.43 kg/m3 and the mass density (313.21 K, 23000 kPa, x2 = 0.4968) was 707.05 ± 0.43 kg/m3. It also gave a mass density (313.21 K, 24000 kPa, x2 = 0.4968) of 707.76 ± 0.44 kg/m3, a mass density (313.21 K, 25000 kPa, x2 = 0.4968) of 708.45 ± 0.45 kg/m3 and a mass density (322.99 K, 1000 kPa, x2 = 0.8991) of 645.29 ± 0.27 kg/m3. The mass density (322.99 K, 2000 kPa, x2 = 0.8991) was 646.4 ± 0.28 kg/m3, the mass density (322.99 K, 3000 kPa, x2 = 0.8991) was 647.52 ± 0.29 kg/m3 and the mass density (322.99 K, 4000 kPa, x2 = 0.8991) was 648.64 ± 0.3 kg/m3. It also gave a mass density (322.99 K, 5000 kPa, x2 = 0.8991) of 649.64 ± 0.31 kg/m3, a mass density (322.99 K, 6000 kPa, x2 = 0.8991) of 650.89 ± 0.32 kg/m3 and a mass density (322.99 K, 7000 kPa, x2 = 0.8991) of 652.02 ± 0.33 kg/m3. For the same compound, the mass density (322.99 K, 8000 kPa, x2 = 0.8991) was 653.14 ± 0.34 kg/m3, the mass density (322.99 K, 9000 kPa, x2 = 0.8991) was 654.27 ± 0.34 kg/m3 and the mass density (322.99 K, 10000 kPa, x2 = 0.8991) was 655.38 ± 0.35 kg/m3. It also gave a mass density (322.99 K, 11000 kPa, x2 = 0.8991) of 656.46 ± 0.36 kg/m3, a mass density (322.99 K, 12000 kPa, x2 = 0.8991) of 657.57 ± 0.37 kg/m3 and a mass density (322.99 K, 13000 kPa, x2 = 0.8991) of 658.64 ± 0.38 kg/m3. It also gave a mass density (322.99 K, 14000 kPa, x2 = 0.8991) of 659.7 ± 0.39 kg/m3, a mass density (322.99 K, 15000 kPa, x2 = 0.8991) of 660.74 ± 0.4 kg/m3 and a mass density (322.99 K, 16000 kPa, x2 = 0.8991) of 661.75 ± 0.41 kg/m3. For the same compound, the mass density (322.99 K, 17000 kPa, x2 = 0.8991) was 662.76 ± 0.42 kg/m3, the mass density (322.99 K, 18000 kPa, x2 = 0.8991) was 663.71 ± 0.43 kg/m3 and the mass density (322.99 K, 19000 kPa, x2 = 0.8991) was 664.67 ± 0.44 kg/m3. It also gave a mass density (322.99 K, 20000 kPa, x2 = 0.8991) of 665.59 ± 0.45 kg/m3, a mass density (322.99 K, 21000 kPa, x2 = 0.8991) of 666.49 ± 0.46 kg/m3 and a mass density (322.99 K, 22000 kPa, x2 = 0.8991) of 667.35 ± 0.47 kg/m3. The mass density (322.99 K, 23000 kPa, x2 = 0.8991) was 668.19 ± 0.48 kg/m3, the mass density (322.99 K, 24000 kPa, x2 = 0.8991) was 669.02 ± 0.49 kg/m3 and the mass density (322.99 K, 25000 kPa, x2 = 0.8991) was 669.89 ± 0.5 kg/m3. For the same compound, the mass density (323.14 K, 1000 kPa, x2 = 0.0456) was 705.56 ± 0.25 kg/m3, the mass density (323.14 K, 1000 kPa, x2 = 0.2185) was 697.1 ± 0.26 kg/m3 and the mass density (323.14 K, 1000 kPa, x2 = 0.4968) was 679.98 ± 0.26 kg/m3. It also gave a mass density (323.14 K, 2000 kPa, x2 = 0.0456) of 706.52 ± 0.26 kg/m3, a mass density (323.14 K, 2000 kPa, x2 = 0.2185) of 698.02 ± 0.26 kg/m3 and a mass density (323.14 K, 2000 kPa, x2 = 0.4968) of 681.03 ± 0.27 kg/m3. The mass density (323.14 K, 3000 kPa, x2 = 0.0456) was 707.47 ± 0.27 kg/m3, the mass density (323.14 K, 3000 kPa, x2 = 0.2185) was 698.97 ± 0.27 kg/m3 and the mass density (323.14 K, 3000 kPa, x2 = 0.4968) was 682.14 ± 0.28 kg/m3. The mass density (323.14 K, 4000 kPa, x2 = 0.0456) was 708.4 ± 0.27 kg/m3, the mass density (323.14 K, 4000 kPa, x2 = 0.2185) was 699.88 ± 0.28 kg/m3 and the mass density (323.14 K, 4000 kPa, x2 = 0.4968) was 683.21 ± 0.28 kg/m3. For the same compound, the mass density (323.14 K, 5000 kPa, x2 = 0.0456) was 709.32 ± 0.28 kg/m3, the mass density (323.14 K, 5000 kPa, x2 = 0.2185) was 700.82 ± 0.28 kg/m3 and the mass density (323.14 K, 5000 kPa, x2 = 0.4968) was 684.24 ± 0.29 kg/m3. It also gave a mass density (323.14 K, 6000 kPa, x2 = 0.0456) of 710.22 ± 0.29 kg/m3, a mass density (323.14 K, 6000 kPa, x2 = 0.2185) of 701.75 ± 0.29 kg/m3 and a mass density (323.14 K, 6000 kPa, x2 = 0.4968) of 685.27 ± 0.3 kg/m3. The mass density (323.14 K, 7000 kPa, x2 = 0.0456) was 711.11 ± 0.29 kg/m3, the mass density (323.14 K, 7000 kPa, x2 = 0.2185) was 702.67 ± 0.3 kg/m3 and the mass density (323.14 K, 7000 kPa, x2 = 0.4968) was 686.28 ± 0.31 kg/m3. It also gave a mass density (323.14 K, 8000 kPa, x2 = 0.0456) of 711.99 ± 0.3 kg/m3, a mass density (323.14 K, 8000 kPa, x2 = 0.2185) of 703.58 ± 0.3 kg/m3 and a mass density (323.14 K, 8000 kPa, x2 = 0.4968) of 687.29 ± 0.31 kg/m3. It also gave a mass density (323.14 K, 9000 kPa, x2 = 0.0456) of 712.86 ± 0.31 kg/m3, a mass density (323.14 K, 9000 kPa, x2 = 0.2185) of 704.45 ± 0.31 kg/m3 and a mass density (323.14 K, 9000 kPa, x2 = 0.4968) of 688.27 ± 0.32 kg/m3. For the same compound, the mass density (323.14 K, 10000 kPa, x2 = 0.0456) was 713.72 ± 0.31 kg/m3, the mass density (323.14 K, 10000 kPa, x2 = 0.2185) was 705.32 ± 0.32 kg/m3 and the mass density (323.14 K, 10000 kPa, x2 = 0.4968) was 689.22 ± 0.33 kg/m3. It also gave a mass density (323.14 K, 10990 kPa, x2 = 0.0456) of 714.56 ± 0.32 kg/m3, a mass density (323.14 K, 10990 kPa, x2 = 0.2185) of 706.19 ± 0.33 kg/m3 and a mass density (323.14 K, 10990 kPa, x2 = 0.4968) of 690.14 ± 0.34 kg/m3. It also gave a mass density (323.14 K, 12000 kPa, x2 = 0.0456) of 715.39 ± 0.33 kg/m3, a mass density (323.14 K, 12000 kPa, x2 = 0.2185) of 707.05 ± 0.33 kg/m3 and a mass density (323.14 K, 12000 kPa, x2 = 0.4968) of 691.07 ± 0.35 kg/m3. For the same compound, the mass density (323.14 K, 13000 kPa, x2 = 0.0456) was 716.21 ± 0.34 kg/m3.
